A short description of experiment [1]: Insulin secretion during ivGTT in male Wistar rats. The format is in vivo. The settings on record: Sema: semaglutide 10 nmol/kg positive control, one per run of each Example compound. As to the method: Methods: An intravenous glucose tolerance test (ivGTT) in Male Wistar rats is used to estimate insulinotropic potency of the Example compounds. A GLP-1R agonist, semaglutide, is used as a positive control. […] Semaglutide is used as positive control in connection with each run of Example compounds ([…] dose).
A time 0 blood sample is collected into EDTA tubes after which glucose is administered ([…], 5 mL/kg). Blood samples are collected for glucose and insulin levels at time 2, 4, 6, 10, 20 and 30 min post intravenous administration of glucose. Plasma insulin is determined using an electrochemiluminescence assay (Meso Scale; Rockville, MD).
Statistical analysis is performed using JMP with a one-way ANOVA followed by Dunnett's comparison to the vehicle control.

Experiment [2] is described as follows: Weight loss, metabolism and body composition in DIO C57/B16 mice. Type of experiment: in vivo. As to the method:
Methods: To investigate the effects of the Example compounds on parameters such as weight loss, metabolism and body composition, the Example compounds are dosed to C57B16 DIO mice. These animals, although not diabetic, display insulin resistance and dyslipidemia, all characteristics of metabolic syndrome, after being placed on a high fat diet for 20 weeks.
Here, DIO male C57/B16 mice at 20 weeks old are maintained on a calorie-rich diet are used in the following studies. […] After a 3-week acclimation to the facility, which includes 1 week of vehicle acclimation dosing, the mice are randomized according to their body weight, so each experimental group of animals would have similar body weight.
All groups contain 6 mice. […] Body weight and food intake are measured daily throughout the study, including 1 day after last dose (Day 15).
Absolute changes in body weight are calculated by subtracting the body weight of the same animal prior to the first injection of molecule. On Days 0 and 15, total fat mass is measured by nuclear magnetic resonance (NMR) using an Echo Medical System (Houston, TX) instrument. On Day 15, metabolic parameters are measured using Accu-Chek® Aviva® Glucometers (Roche; Indianapolis, IN) or a Hitachi clinical blood analyzer (Roche, Indianapolis, IN). Plasma insulin is determined using an electrochemiluminescence assay (Meso Scale Discovery, Rockville, MD).
Data are presented as mean±t SEM of 6animals per group in Tables 7 and 8 below. Statistical analysis is performed using repeated measures ANOVA, followed by Dunneti's method for multiple comparisons. Significant differences are identified as * with p<0.05.

Where [3] appears, read: 10 nmol/kg SQ daily, day 15 difference vs vehicle, DIO mice.

“And” between values parts separate entries of the source, which are not always exact repeats. Equal values may be shown once. Marks after values point to notes of the source that are not given here.

Here are results for one substance from patent US20260125440A1, “INCRETIN ANALOGS AND USES THEREOF” (ELI LILLY AND COMPANY, priority 2019, published 2026).

In the case of semaglutide, the “AUC30 min of Insulin After Bolus IV Glucose” value in experiment [1] is 76.4 and 76.6 and 80.9. Besides, in experiment [2] (10 nmol/kg SQ daily 14 days, day 15, difference vs vehicle, DIO mice), the “Δ Body Weight (g)” value is listed as −9.23 ± 0.58* g. Moreover, in experiment [2] (setting [3]), the “Δ Cholesterol” value is −73.33 ± 4.17* mg/dL, the “Δ Glucose” value is -18.33 ± 2.81 mg/dL, the “Δ Insulin” value is -4.15 ± 2.23 ng/mL and the “Δ Trigs” value is on record as 16.00 ± 0.38 mg/dL. In addition, in experiment [2] (10 nmol/kg SQ daily, difference in fat mass between days 0 and 15 (NMR), DIO mice), the “Fat Mass (%)” value was −15.14 ± 1.93* %. Besides, the “Δ Body Weight (%)” value in experiment [2] (10 nmol/kg SQ daily, percent decrease between days 1 and 15, DIO mice) is recorded as −21.98 ± 2.58* %.
